The target in the assay is T1, rat intestinal α-glucosidase.
T1 construct: gene Mgam; crude supernatant of rat intestinal acetone powder (Sigma N1377-5G), brush border enzymes, not purified
In words: p-nitrophenol release, absorbance […] nm, five-point dose-response. In kind it is biochemical. As to conditions: substrate p-nitrophenyl α-D-glucoside (1 mM stock, 200 µL in 1 mL), phosphate pH 6.8, 37 °C, 5 min pre-incubation; crude extract.

`C[C@H]1O[C@H](O[C@H]2[C@H](O)[C@@H](O)[C@@H](O[C@H]3[C@H](O)[C@@H](O)C(O)O[C@@H]3CO)O[C@@H]2CO)[C@H](O)[C@@H](O)[C@@H]1N[C@H]1C=C(CO)[C@@H](O)[C@H](O)[C@H]1O` (stereo partly shown) [acarbose] returned an I50 of 100 µg/mL.

Source of the values: publication PMC11675744, “Grape Pomace as a Source of Phenolics for the Inhibition of Starch Digestion Enzymes: A Comparative Study and Standardization of the Efficacy” (Foods, 2024).
